For this assay, the system named is form-deprivation myopia. Kind of assay: Form-deprivation myopia (FDM) development in chicks with a translucent diffuser; axial length by A-scan ultrasonography. The conditions noted are these: four days; for axial length: diffuser-treated eye.
The mark [1] stands for this setting: daily intravitreal injection of 1.5 mM solution.
Setting [2] is: daily intravitreal injection of 15 mM solution.
The mark [3] stands for this setting: daily intravitreal injection of 1.5 mM solution (10 μL), mean±SEM.
[4] abbreviates: daily intravitreal injection of 15 mM solution (10 μL), mean±SEM.
The mark [5] stands for this setting: twice daily topical administration of 1.5 mM solution, mean±SEM.
The mark [6] stands for this setting: twice daily topical eye drops of 15 mM solution, mean±SEM.
Where [7] appears, read: twice daily topical eye drops of 15 mM solution.

Procedure: 30 white male cockerel chickens were randomly assigned to one of six treatment groups as defined below (n=5 per group) and were treated for a four day period. • Chicks fitted with a translucent diffuser over their left eye to induce form-deprivation myopia (FDM); • Chicks fitted with a translucent diffuser over their left eye and daily intravitreal injection of a 1.5 mM (0.028%) dopamine solution prepared according to Example 1; • Chicks fitted with a translucent diffuser over their left eye and twice daily topical administration of a 1.5 mM (0.028%) dopamine solution prepared according to Example 1; • Chicks fitted with a translucent diffuser over their left eye and daily intravitreal injection of a 15 mM (0.28%) dopamine solution prepared according to Example 1; • Chicks fitted with a translucent diffuser over their left eye and twice daily topical administration of a 15 mM (0.28%) dopamine solution prepared according to Example 1; • Age-matched untreated control group.
For the drug treatments, the compositions were administered under light isoflurane anesthesia using intravitreal injection or topical administration.
Intravitreal injection was performed as follows: Using a 30 gauge needle attached to a Hamilton syringe, 10 μL (0.01 mL) of the test composition was injected into the vitreous chamber of the eye once daily.
Topical administration was performed as follows: Two drops of 40 μL (two drops of 0.04 mL, or 0.08 mL total) of the test composition was applied to the corneal surface of the eye using an eye drop dispenser. Drops were applied to the chicks twice daily.
To determine changes in the rate of eye growth and the development of myopia, changes in axial length was assessed. […] Axial length, anterior chamber depth and vitreal chamber depth were measured using A-scan ultrasonography (Biometer AL-100; Tomey Corporation, Nagoya, Japan). Statistical analysis of changes in axial length, anterior chamber depth and vitreal chamber depth between groups involved a one-way ANOVA test followed by a Student's T-test with Bonferroni correction. All data are presented as the mean±the standard deviation of the mean (SEM).

Turning to `CN1[C@@H]2CC[C@H]1C[C@@H](OC(=O)C(CO)c1ccccc1)C2` (stereo partly drawn) [atropine], the “effect on excessive axial elongation associated with form-deprivation myopia (in words)” value (“effect” for short) (daily intravitreal injection of 0.25 mM atropine alone) is on record as “significantly inhibited”. In addition, the axial length (twice daily topical administration of 50 mM atropine solution alone) is 8.79±0.09 mm.

Take `NCCc1ccc(O)c(O)c1` [dopamine, 2-(3,4-dihydroxyphenyl)ethylamine]: the “protection relative to FDM-only” value is, setting by setting: under setting [1], 78%; under setting [2], 78%; under setting [7], 72%. Besides, the axial length runs as follows: under setting [3], 8.82±0.02 mm; under setting [4], 8.82±0.11 mm; under setting [5], 8.97±0.08 mm; under setting [6], 8.84±0.07 mm.

With `[2H]C([2H])(N)C([2H])([2H])c1ccc(O)c(O)c1` [dopamine-1,1,2,2-d4, 2-(3,4-dihydroxyphenyl)ethyl-1,1,2,2,d4-amine], the “effect” value (daily intravitreal injection of 0.15 mM dopamine-1,1,2,2-d4 alone) was “significantly inhibited”. In addition, the “protection relative to FDM-only” value came out at 92% under setting [1], 103% under setting [2] and 71% under setting [7]. Also, the axial length runs as follows: under setting [3], 8.77±0.11 mm; under setting [4], 8.72±0.06 mm; under setting [5], 8.88±0.10 mm; under setting [6], 8.85±0.14 mm.

With `CN1CCN(CC(=O)N2c3ccccc3C(=O)Nc3cccnc32)CC1` [pirenzepine], the “effect” value (daily intravitreal injection of 17 mM pirenzepine alone) is reported as “significantly inhibited”.

The record behind these values is patent US20220047529A1, “METHODS OF INHIBITION” (University of Canberra, priority 2018, published 2022).
